According to ChEMBL document CHEMBL1909046, “DrugMatrix in vitro pharmacology data”:

Tests used:
[1] = molecular target: Epidermal growth factor receptor (Homo sapiens, UniProt P00533); assay: DRUGMATRIX: Protein Tyrosine Kinase, EGF Receptor enzyme inhibition (substrate: Poly(Glu:Tyr)); format: cell-based, Insect cells; settings: insect cells; Not Active = under 50% inhibition at 10 µM
[2] = molecular target: T1, Caspase-1 (Homo sapiens, UniProt P29466); parameters: species or system Escherichia coli;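 also: Caspase-1 enzyme inhibition assay with a peptide substrate; in other assays of this panel Not Active means under 50% inhibition at 10 µM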
T1 sequence (P29466 whole entry): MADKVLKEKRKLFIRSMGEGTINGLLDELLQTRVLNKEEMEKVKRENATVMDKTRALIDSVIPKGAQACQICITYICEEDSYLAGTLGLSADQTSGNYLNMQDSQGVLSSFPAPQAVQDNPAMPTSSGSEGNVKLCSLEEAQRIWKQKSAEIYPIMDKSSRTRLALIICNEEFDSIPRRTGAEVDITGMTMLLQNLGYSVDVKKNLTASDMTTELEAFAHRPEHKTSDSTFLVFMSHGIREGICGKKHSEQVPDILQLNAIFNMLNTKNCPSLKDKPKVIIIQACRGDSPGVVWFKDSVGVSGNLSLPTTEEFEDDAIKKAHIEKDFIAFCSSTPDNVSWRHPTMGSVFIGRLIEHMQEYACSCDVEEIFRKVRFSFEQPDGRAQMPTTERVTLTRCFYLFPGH

[3] = molecular target: Mitogen-activated protein kinase 1 (Homo sapiens, UniProt P28482); assay: DRUGMATRIX: Protein Serine/Threonine Kinase, ERK2 enzyme inhibition (substrate: Myelin Basic Protein); parameters: species or system Escherichia coli; settings: Not Active = under 50% inhibition at 10 µM
Chain of Mitogen-activated protein kinase 1 (P28482 whole entry): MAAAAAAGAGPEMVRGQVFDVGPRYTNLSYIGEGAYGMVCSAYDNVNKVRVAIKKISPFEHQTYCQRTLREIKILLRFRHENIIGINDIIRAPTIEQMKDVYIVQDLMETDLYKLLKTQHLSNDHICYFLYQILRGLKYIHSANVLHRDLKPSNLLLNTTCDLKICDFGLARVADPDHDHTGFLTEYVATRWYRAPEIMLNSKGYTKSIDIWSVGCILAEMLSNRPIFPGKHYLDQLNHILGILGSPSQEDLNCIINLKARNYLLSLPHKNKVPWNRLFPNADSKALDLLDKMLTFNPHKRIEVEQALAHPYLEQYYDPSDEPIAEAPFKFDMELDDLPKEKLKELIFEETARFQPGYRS

[4] = molecular target: Melanocortin receptor 3 (Homo sapiens, UniProt P41968); format: cell membranes, Membrane; settings: hek293; also: in other assays of this panel Not Active means under 50% inhibition at 10 µM
Chain of Melanocortin receptor 3 (P41968 whole entry): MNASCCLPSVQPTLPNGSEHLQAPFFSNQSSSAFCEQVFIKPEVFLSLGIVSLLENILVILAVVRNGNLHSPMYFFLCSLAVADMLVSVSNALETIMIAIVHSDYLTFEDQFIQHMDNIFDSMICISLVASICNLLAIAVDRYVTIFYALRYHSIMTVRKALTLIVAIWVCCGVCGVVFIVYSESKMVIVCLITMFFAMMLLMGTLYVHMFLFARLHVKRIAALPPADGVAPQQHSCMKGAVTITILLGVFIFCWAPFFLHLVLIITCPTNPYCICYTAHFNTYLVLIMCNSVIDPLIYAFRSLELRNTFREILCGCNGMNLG

[5] = molecular target: Insulin receptor (Rattus norvegicus, UniProt P15127); format: cell membranes, Wistar, Liver, Membrane; also: in other assays of this panel Not Active means under 50% inhibition at 10 µM
Chain of Insulin receptor (P15127 27-759 limits assumed): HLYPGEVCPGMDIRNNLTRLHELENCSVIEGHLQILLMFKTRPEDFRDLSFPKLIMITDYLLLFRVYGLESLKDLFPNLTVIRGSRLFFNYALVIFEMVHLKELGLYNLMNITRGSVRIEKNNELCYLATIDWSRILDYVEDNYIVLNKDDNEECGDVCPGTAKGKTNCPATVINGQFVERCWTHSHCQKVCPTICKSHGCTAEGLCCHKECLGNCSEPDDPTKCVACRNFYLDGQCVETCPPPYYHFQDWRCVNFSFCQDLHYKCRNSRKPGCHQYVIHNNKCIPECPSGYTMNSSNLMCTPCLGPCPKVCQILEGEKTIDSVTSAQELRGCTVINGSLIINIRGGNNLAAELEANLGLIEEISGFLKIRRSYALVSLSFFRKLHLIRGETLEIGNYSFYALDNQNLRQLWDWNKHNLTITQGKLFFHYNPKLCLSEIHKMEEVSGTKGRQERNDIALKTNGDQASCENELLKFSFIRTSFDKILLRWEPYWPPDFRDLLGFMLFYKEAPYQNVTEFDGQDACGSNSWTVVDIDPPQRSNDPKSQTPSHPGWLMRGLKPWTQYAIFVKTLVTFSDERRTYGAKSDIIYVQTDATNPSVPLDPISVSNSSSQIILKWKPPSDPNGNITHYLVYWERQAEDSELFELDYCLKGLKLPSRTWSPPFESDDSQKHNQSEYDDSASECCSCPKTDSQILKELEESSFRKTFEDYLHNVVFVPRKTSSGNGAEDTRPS
Chain of Insulin receptor (P15127 764-1383 limits assumed): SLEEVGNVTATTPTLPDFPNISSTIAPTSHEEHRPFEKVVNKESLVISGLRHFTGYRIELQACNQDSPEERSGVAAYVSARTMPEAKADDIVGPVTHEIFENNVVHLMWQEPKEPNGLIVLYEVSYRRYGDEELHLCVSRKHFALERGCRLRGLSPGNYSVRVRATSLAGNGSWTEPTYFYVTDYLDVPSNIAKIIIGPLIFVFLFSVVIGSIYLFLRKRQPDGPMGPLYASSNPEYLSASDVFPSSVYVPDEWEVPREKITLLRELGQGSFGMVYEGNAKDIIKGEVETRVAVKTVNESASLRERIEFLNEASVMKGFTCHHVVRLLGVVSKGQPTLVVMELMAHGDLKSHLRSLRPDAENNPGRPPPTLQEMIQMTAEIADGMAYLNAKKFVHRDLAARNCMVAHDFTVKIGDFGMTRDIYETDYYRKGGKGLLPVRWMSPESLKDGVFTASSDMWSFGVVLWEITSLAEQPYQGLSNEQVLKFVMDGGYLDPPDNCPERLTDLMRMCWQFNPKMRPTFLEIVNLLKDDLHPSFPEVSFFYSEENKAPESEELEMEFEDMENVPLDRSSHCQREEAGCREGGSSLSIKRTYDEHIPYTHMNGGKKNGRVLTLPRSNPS

[6] = molecular target: Cytochrome P450 2C9 (Homo sapiens, UniProt P11712); settings: bti-tn-5b1-4; also: in other assays of this panel Not Active means under 50% inhibition at 10 µM
Chain of Cytochrome P450 2C9 (P11712 whole entry): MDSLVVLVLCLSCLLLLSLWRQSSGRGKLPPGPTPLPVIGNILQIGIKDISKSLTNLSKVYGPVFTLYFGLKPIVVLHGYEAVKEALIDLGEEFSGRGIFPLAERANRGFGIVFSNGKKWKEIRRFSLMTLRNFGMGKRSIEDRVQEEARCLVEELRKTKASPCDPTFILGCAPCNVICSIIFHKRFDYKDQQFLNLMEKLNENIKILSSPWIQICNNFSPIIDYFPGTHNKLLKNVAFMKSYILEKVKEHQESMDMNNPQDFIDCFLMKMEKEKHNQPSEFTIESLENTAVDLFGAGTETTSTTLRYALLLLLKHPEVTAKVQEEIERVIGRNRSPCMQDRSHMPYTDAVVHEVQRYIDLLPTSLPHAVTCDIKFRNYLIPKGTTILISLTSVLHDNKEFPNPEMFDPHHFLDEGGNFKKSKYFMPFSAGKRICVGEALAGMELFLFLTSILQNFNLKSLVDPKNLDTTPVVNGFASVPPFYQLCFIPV

[7] = molecular target: Receptor tyrosine-protein kinase erbB-2 (Homo sapiens, UniProt P04626); assay: biochemical; format: cell-based, Insect cells
[8] = molecular target: T2, Muscarinic acetylcholine receptor M4 (Homo sapiens, UniProt P08173); format: cell membranes, CHO-K1, Membrane; settings: cho-k1; also: in other assays of this panel Not Active means under 50% inhibition at 10 µM
T2 sequence (P08173 whole entry): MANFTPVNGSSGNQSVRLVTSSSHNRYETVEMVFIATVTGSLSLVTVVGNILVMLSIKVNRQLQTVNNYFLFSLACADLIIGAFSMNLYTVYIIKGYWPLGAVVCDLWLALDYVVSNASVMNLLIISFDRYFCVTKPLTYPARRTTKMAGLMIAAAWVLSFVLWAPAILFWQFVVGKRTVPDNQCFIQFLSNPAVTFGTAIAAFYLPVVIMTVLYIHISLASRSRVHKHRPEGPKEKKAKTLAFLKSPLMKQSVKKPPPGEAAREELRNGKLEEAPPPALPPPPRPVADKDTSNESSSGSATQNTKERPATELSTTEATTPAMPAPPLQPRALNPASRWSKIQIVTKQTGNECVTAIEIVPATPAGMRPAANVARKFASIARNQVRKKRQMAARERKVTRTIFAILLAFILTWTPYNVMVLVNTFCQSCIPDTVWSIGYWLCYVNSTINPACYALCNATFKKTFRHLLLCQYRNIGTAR

[9] = molecular target: 5-hydroxytryptamine receptor 1B (Rattus norvegicus, UniProt P28564); format: cell membranes, Wistar, Cerebral cortex, Membrane; also: in other assays of this panel Not Active means under 50% inhibition at 10 µM
Chain of 5-hydroxytryptamine receptor 1B (P28564 whole entry): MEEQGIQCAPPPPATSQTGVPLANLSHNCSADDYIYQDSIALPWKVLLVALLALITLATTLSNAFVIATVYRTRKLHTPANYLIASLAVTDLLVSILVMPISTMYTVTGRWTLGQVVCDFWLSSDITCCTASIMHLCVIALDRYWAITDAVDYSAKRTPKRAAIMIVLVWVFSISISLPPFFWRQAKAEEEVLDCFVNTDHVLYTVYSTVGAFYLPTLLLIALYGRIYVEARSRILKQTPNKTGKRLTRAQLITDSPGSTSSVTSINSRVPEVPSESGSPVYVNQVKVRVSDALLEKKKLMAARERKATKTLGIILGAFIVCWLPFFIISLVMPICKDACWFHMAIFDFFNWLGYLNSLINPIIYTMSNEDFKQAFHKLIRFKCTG

[10] = DRUGMATRIX: GABAA, Chloride Channel, TBOB radioligand binding (ligand: [3H] TBOB); format: cell membranes, Rattus norvegicus, Wistar, Cerebral cortex, Membrane; settings: Not Active = under 50% inhibition at 10 µM
[11] = molecular target: T3, C-C chemokine receptor type 4 (Homo sapiens, UniProt P51679); format: cell membranes, Membrane; settings: chem-1; also: in other assays of this panel Not Active means under 50% inhibition at 10 µM
T3 sequence (P51679 whole entry): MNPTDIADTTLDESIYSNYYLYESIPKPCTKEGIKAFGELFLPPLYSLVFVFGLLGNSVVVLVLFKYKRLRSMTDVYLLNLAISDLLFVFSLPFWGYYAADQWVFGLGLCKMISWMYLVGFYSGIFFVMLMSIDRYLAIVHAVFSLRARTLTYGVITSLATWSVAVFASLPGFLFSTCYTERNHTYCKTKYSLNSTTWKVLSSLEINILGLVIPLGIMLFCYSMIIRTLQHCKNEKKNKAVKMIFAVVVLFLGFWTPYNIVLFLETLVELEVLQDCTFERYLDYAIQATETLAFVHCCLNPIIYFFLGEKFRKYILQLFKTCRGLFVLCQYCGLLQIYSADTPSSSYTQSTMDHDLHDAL

[12] = DRUGMATRIX: Tumor Necrosis Factor (TNF), Non-Selective radioligand binding (ligand: [125I] TNF-alpha); format: cell membranes, Membrane; settings: u-937; Not Active = under 50% inhibition at 10 µM
[13] = molecular target: T4, Glucocorticoid receptor (Homo sapiens, UniProt P04150); settings: hela s3; also: in other assays of this panel Not Active means under 50% inhibition at 10 µM
T4 sequence (P04150 whole entry): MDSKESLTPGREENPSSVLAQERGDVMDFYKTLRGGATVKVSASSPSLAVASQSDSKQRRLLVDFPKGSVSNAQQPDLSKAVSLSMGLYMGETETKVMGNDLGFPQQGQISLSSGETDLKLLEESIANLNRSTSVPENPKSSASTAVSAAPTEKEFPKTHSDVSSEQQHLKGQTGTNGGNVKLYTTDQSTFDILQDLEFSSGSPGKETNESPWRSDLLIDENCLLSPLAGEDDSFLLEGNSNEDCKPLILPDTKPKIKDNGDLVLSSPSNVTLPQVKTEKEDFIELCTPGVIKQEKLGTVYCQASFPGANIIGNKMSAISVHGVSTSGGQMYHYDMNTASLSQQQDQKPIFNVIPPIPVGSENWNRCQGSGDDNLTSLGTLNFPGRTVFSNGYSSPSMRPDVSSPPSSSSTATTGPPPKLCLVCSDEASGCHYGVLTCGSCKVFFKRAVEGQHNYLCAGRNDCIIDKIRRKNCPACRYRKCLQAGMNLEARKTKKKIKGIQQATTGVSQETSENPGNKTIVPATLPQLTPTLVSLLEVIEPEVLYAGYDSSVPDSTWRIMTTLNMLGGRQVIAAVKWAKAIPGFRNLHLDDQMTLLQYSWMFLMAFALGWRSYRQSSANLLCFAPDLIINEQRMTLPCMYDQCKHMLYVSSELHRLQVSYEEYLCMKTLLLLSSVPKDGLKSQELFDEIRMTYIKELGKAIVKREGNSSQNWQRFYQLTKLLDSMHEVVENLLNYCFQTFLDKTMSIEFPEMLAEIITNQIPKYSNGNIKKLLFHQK

[14] = molecular target: Kappa-type opioid receptor (Homo sapiens, UniProt P41145); assay: DRUGMATRIX: Opiate kappa (OP2, KOP) radioligand binding (ligand: [3H] Diprenorphine); format: cell membranes, HEK293, Membrane; settings: hek293; Not Active = under 50% inhibition at 10 µM
Chain of Kappa-type opioid receptor (P41145 whole entry): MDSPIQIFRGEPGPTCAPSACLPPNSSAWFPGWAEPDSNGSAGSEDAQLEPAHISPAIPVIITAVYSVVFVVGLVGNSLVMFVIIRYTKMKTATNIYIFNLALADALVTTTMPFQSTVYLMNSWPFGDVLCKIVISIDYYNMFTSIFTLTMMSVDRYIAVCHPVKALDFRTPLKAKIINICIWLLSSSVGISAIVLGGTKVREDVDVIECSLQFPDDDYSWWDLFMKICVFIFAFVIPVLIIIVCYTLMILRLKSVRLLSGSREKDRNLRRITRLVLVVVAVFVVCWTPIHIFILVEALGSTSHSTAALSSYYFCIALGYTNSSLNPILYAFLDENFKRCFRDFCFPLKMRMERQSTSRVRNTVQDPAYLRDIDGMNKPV

Chain of Epidermal growth factor receptor (P00533 whole entry): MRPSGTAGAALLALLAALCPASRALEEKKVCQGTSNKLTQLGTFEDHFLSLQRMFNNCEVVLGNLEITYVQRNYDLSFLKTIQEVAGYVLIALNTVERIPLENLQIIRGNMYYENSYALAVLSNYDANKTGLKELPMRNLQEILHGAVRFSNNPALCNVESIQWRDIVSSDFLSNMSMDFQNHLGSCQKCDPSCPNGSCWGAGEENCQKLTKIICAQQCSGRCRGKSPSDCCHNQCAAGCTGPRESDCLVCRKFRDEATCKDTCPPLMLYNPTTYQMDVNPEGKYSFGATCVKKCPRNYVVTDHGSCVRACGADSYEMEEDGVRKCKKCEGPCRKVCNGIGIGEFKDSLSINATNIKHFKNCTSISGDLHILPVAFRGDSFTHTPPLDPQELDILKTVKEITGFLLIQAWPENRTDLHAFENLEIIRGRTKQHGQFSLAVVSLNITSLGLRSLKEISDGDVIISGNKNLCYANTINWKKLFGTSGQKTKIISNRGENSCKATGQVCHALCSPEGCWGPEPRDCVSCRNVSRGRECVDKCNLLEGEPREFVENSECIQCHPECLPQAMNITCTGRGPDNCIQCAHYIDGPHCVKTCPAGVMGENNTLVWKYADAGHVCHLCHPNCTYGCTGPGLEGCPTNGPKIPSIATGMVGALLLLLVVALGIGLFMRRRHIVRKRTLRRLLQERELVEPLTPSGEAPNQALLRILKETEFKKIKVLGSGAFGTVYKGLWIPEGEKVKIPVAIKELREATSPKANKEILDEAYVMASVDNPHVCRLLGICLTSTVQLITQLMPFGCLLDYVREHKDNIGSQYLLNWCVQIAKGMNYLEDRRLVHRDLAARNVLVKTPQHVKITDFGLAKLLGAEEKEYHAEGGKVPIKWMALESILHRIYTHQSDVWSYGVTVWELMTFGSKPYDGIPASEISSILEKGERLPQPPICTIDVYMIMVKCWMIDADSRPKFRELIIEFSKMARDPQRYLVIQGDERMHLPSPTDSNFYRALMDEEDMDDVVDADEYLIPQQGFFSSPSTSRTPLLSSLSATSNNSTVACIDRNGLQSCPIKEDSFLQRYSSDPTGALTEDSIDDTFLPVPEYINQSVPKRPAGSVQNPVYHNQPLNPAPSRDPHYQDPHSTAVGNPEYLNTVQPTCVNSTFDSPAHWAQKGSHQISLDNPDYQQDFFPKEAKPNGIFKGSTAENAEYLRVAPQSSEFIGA

For c1ccc2c(c1)cc1ccc3cccc4ccc2c1c34, the IC50 [1] was “Not Active”, the IC50 [2] was “Not Active” and the IC50 [3] was “Not Active”. The IC50 [4] was “Not Active”, the IC50 [5] was “Not Active” and the IC50 [6] was “Not Active”. For the same compound, the Ki [6] was “Not Active”, the IC50 ([7]; read-out: IC50) was 41.5 µM and the IC50 [8] was “Not Active”. For the same compound, the IC50 [9] was “Not Active”, the IC50 [10] was “Not Active” and the Ki [10] was “Not Active”. For the same compound, the IC50 [11] was “Not Active”, the IC50 [12] was “Not Active” and the Ki [12] was “Not Active”. The IC50 [13] was “Not Active”.
With N#C[C@H](O[C@@H]1O[C@H](CO[C@@H]2O[C@H](CO)[C@@H](O)[C@H](O)[C@H]2O)[C@@H](O)[C@H](O)[C@H]1O)c1ccccc1 [AMYGDALIN] the IC50 [1] was “Not Active”, the IC50 [2] was “Not Active” and the IC50 [3] was “Not Active”. The IC50 [4] was “Not Active”, the IC50 [5] was “Not Active” and the IC50 [6] was “Not Active”. The Ki [6] was “Not Active”, the IC50 ([7]; insect cells) was “Not Active” and the IC50 [8] was “Not Active”. The IC50 [9] was “Not Active”, the IC50 [10] was “Not Active” and the Ki [10] was “Not Active”. The IC50 [11] was “Not Active”, the IC50 [12] was “Not Active” and the Ki [12] was “Not Active”. For the same compound, the IC50 [13] was “Not Active”.
For CCc1cccc2c3c([nH]c12)C(CC)(CC(=O)O)OCC3 (stereo unspecified) [ETODOLAC], the IC50 [1] was “Not Active”, the IC50 [2] was “Not Active” and the IC50 [3] was “Not Active”. For the same compound, the IC50 [4] was “Not Active”, the IC50 [5] was “Not Active” and the IC50 [14] was “Not Active”. For the same compound, the IC50 [6] was “Not Active”, the Ki [6] was “Not Active” and the IC50 ([7]; insect cells) was “Not Active”. The IC50 [8] was “Not Active”, the IC50 [9] was “Not Active” and the IC50 [10] was “Not Active”. For the same compound, the Ki [10] was “Not Active”, the IC50 [11] was “Not Active” and the IC50 [12] was “Not Active”. The Ki [12] was “Not Active”.
With CC(=O)[C@@]1(O)CC[C@H]2[C@@H]3C[C@H](C)C4=CC(=O)C=C[C@]4(C)[C@@]3(F)[C@@H](O)C[C@@]21C [FLUOROMETHOLONE] the IC50 [1] was “Not Active”, the IC50 [2] was “Not Active” and the IC50 [3] was “Not Active”. For the same compound, the IC50 [4] was “Not Active”, the IC50 [5] was “Not Active” and the IC50 [14] was “Not Active”. For the same compound, the IC50 [6] was “Not Active”, the Ki [6] was “Not Active” and the IC50 ([7]; insect cells) was “Not Active”. For the same compound, the IC50 [8] was “Not Active”, the IC50 [9] was “Not Active” and the IC50 [10] was “Not Active”. The Ki [10] was “Not Active”, the IC50 [11] was “Not Active” and the IC50 [12] was “Not Active”. The Ki [12] was “Not Active”.
With CC1(C)[C@@H](O[C@H]2O[C@H](C(=O)O)[C@@H](O)[C@H](O)[C@H]2O[C@@H]2O[C@H](C(=O)O)[C@@H](O)[C@H](O)[C@H]2O)CC[C@]2(C)[C@H]3C(=O)C=C4[C@@H]5C[C@@](C)(C(=O)O)CC[C@]5(C)CC[C@@]4(C)[C@]3(C)CC[C@@H]12 [GLYCYRRHIZIN] the IC50 [1] was “Not Active”, the IC50 [2] was “Not Active” and the IC50 [3] was “Not Active”. For the same compound, the IC50 [4] was “Not Active”, the IC50 [5] was “Not Active” and the IC50 [14] was “Not Active”. For the same compound, the IC50 [6] was “Not Active”, the Ki [6] was “Not Active” and the IC50 ([7]; insect cells) was “Not Active”. The IC50 [8] was “Not Active”, the IC50 [9] was “Not Active” and the IC50 [10] was “Not Active”. For the same compound, the Ki [10] was “Not Active”, the IC50 [11] was “Not Active” and the IC50 [12] was “Not Active”. For the same compound, the Ki [12] was “Not Active”.
With CC1COc2c(N3CCN(C)CC3)c(F)cc3c(=O)c(C(=O)O)cn1c23 (stereo unspecified) [OFLOXACIN] the IC50 [1] was “Not Active”, the IC50 [2] was “Not Active” and the IC50 [3] was “Not Active”. The IC50 [4] was “Not Active”, the IC50 [5] was “Not Active” and the IC50 [14] was “Not Active”. For the same compound, the IC50 [6] was “Not Active”, the Ki [6] was “Not Active” and the IC50 ([7]; insect cells) was “Not Active”. The IC50 [8] was “Not Active”, the IC50 [9] was “Not Active” and the IC50 [10] was “Not Active”. The Ki [10] was “Not Active”, the IC50 [11] was “Not Active” and the IC50 [12] was “Not Active”. For the same compound, the Ki [12] was “Not Active”.
With CCCc1cc(=O)[nH]c(=S)[nH]1 [PROPYLTHIOURACIL] the IC50 [1] was “Not Active”, the IC50 [2] was “Not Active” and the IC50 [3] was “Not Active”. For the same compound, the IC50 [4] was “Not Active”, the IC50 [5] was “Not Active” and the IC50 [14] was “Not Active”. The IC50 [6] was “Not Active”, the Ki [6] was “Not Active” and the IC50 ([7]; insect cells) was “Not Active”. The IC50 [8] was “Not Active”, the IC50 [9] was “Not Active” and the IC50 [10] was “Not Active”. The Ki [10] was “Not Active”, the IC50 [11] was “Not Active” and the IC50 [12] was “Not Active”. For the same compound, the Ki [12] was “Not Active”.
With GOLD SODIUM THIOMALATE the IC50 [2] was “Not Active”, the Ki [2] was “Not Active” and the IC50 [3] was “Not Active”. For the same compound, the Ki [3] was “Not Active”, the IC50 [4] was “Not Active” and the Ki [4] was “Not Active”. The IC50 [5] was “Not Active”, the Ki [5] was “Not Active” and the IC50 [6] was “Not Active”. For the same compound, the Ki [6] was “Not Active”, the IC50 ([7]; insect cells) was “Not Active” and the Ki ([7]; insect cells) was “Not Active”. The IC50 [8] was “Not Active”, the Ki [8] was “Not Active” and the IC50 [9] was “Not Active”. The Ki [9] was “Not Active”, the IC50 [10] was “Not Active” and the Ki [10] was “Not Active”. The IC50 [11] was “Not Active”, the Ki [11] was “Not Active” and the IC50 [12] was “Not Active”. For the same compound, the Ki [12] was “Not Active”, the IC50 [13] was “Not Active” and the Ki [13] was “Not Active”.
